Each structure is given as a SMILES string. Values after ≈ are worked out from the molar mass of the structure shown. Like-named read-outs stand apart in the source and are kept apart here.

Assay [1] has as its system Staphylococcus aureus 285. The experiment in a line: Antibacterial activity in vitro (MIC, two-fold agar dilution). To be noted: Staphylococcus aureus, 285, 18 h, read-out: Minimal Inhibitory Concentration (MIC). Background: In agar dilution the substance is mixed into plates at graded concentrations.
The subject of assay [2] is Staphylococcus aureus 503. Described as above. To be noted: Staphylococcus aureus, 503, 18 h, read-out: Minimal Inhibitory Concentration (MIC).
The test system of another assay is Klebsiella oxytoca 1082E. The assay is described as above. As to conditions: 18 h, read-out: Minimal Inhibitory Concentration (MIC).
The subject of assay [3] is calf thymus topoisomerase II. The experiment in a line: Inhibition of topoisomerase II enzyme activity. Format: biochemical. Details: unit not given here. As to conditions: concentration to inhibit the enzyme activity of topoisomerase II (calf thymus). The source says: (§1) Test 2. Selectivity Index
The test system of assay [4] is Klebsiella aerogenes 1552E. The experiment in a line: Antibacterial activity in vitro (MIC, two-fold agar dilution). As to conditions: 18 h, read-out: Minimal Inhibitory Concentration (MIC).
The subject of another assay is Escherichia coli DC 0. Described as above. It counts as cell-based. As to conditions: read-out: Minimal Inhibitory Concentration (MIC). The source says: (§2) Test 1. Antibacterial activity in vitro
A further assay relates to Escherichia coli DC 2. Described as above. As to conditions: DC2, Muller Hinton agar, 10^7 CFU/ml, 37° C., 18 hours, read-out: Minimal Inhibitory Concentration (MIC). Format: cell-based.
Description: as §2

In another assay the test system is Escherichia coli TEM. The experiment in a line: microbe, parasite or virus in culture. As to conditions: 18 h, read-out: Minimal Inhibitory Concentration (MIC).
The next assay concerns Escherichia coli 1507E. The experiment in a line: Antibacterial activity in vitro (MIC, two-fold agar dilution). As to conditions: 18 h, read-out: Minimal Inhibitory Concentration (MIC).
For assay [5], the system named is Pseudomonas aeruginosa 1592E. The description is as above. As to conditions: Muller Hinton agar, 10^7 CFU/ml, 37° C., 18 hours, read-out: Minimal Inhibitory Concentration (MIC). It counts as cell-based.
Description: as §2
13. Pseudomonas aeruginosa 1592 E

Assay [6] has as its system Streptococcus pyogenes A 308. The description is as above. Format: cell-based. To be noted: read-out: Minimal Inhibitory Concentration (MIC).
Description: as §2
1. Streptococcus pyogenes A 308

Assay [7] concerns Pseudomonas aeruginosa 9027. Described as above. To be noted: Pseudomonas aeruginosa, 9027, 18 h, read-out: Minimal Inhibitory Concentration (MIC).
Another assay has as its system Escherichia coli 078. The assay is described as above. To be noted: Escherichia coli, 078, 18 h, read-out: Minimal Inhibitory Concentration (MIC).
The subject of assay [8] is Pseudomonas aeruginosa 1771. The description is as above. Format: cell-based. To be noted: Muller Hinton agar, 10^7 CFU/ml, 37° C., 18 hours, read-out: Minimal Inhibitory Concentration (MIC).
Description: as §2
14. Pseudomonas aeruginosa 1771

The next assay deals with gyrase of E. coli (Escherichia coli, UniProt P0AES4+P0AES6). In words: Inhibition of gyrase enzyme activity. Format: biochemical. Details: unit not given here. As to conditions: concentration to inhibit the enzyme activity of gyrase of E. coli.
gyrase of E. coli, sequence (P0AES4 whole entry, one chain of several): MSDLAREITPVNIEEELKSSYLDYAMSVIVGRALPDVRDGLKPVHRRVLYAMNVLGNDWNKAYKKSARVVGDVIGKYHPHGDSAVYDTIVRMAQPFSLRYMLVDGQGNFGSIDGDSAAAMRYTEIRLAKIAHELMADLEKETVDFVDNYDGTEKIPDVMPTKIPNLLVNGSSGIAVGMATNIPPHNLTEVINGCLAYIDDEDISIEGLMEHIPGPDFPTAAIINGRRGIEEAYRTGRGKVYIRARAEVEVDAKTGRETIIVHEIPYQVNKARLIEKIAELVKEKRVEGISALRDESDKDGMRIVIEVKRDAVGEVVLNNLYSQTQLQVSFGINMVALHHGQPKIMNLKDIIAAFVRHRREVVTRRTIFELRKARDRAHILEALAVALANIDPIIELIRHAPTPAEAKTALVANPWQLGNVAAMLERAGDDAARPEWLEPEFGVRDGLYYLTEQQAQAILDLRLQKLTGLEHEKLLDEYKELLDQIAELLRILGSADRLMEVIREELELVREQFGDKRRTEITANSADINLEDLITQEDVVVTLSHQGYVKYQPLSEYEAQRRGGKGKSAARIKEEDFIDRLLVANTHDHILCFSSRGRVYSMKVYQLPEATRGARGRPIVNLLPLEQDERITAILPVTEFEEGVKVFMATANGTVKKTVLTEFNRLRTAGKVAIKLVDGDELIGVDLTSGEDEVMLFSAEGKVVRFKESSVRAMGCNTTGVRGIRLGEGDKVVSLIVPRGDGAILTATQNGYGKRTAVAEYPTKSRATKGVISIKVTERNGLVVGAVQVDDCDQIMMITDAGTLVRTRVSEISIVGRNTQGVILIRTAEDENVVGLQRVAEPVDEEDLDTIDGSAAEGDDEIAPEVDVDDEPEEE
Description: as §1

A further assay relates to Salmonella typhimurium. The experiment in a line: Antibacterial activity in vitro (MIC, two-fold agar dilution). As to conditions: Salmonella enterica, 18 h, read-out: Minimal Inhibitory Concentration (MIC).
Assay [9] deals with Streptococcus pyogenes A 77. The assay is described as above. To be noted: read-out: Minimal Inhibitory Concentration (MIC). It counts as cell-based.
Description: as §2
2. Streptococcus pyogenes A 77

In assay [10] the test system is Staphylococcus aureus SG 511. Described as above. Format: cell-based. To be noted: SG511, Muller Hinton agar, 10^7 CFU/ml, 37° C., 18 hours, read-out: Minimal Inhibitory Concentration (MIC).
Description: as §2
4. Staphylococcus aureus SG 511

Assay [11] has as its system Streptococcus faecium MD 8b. Described as above. It counts as cell-based. As to conditions: Enterococcus faecium, MD8B, read-out: Minimal Inhibitory Concentration (MIC).
Description: as §2
3. Streptococcus faecium MD 8b

A further assay concerns Enterobacter cloacae P99. The experiment in a line: microbe, parasite or virus in culture. As to conditions: P99, 18 h, read-out: Minimal Inhibitory Concentration (MIC).
Description: as §2
19. Enterobacter cloacae P 99

Assay [12] concerns gyrase of E. coli and calf thymus topoisomerase II. As to conditions: calculated by equation 1 from IC100, Topo II and IC100, Gyrase. The method, then: as §1
Selectivity indexes of the compounds of the present invention and control compounds were measured using gyrase purified from of E. coli and calf thymus topoisomerase II obtained from Topogen. Co.
The selectivity index (S.I.) was calculated by the equation 1. [formula]
wherein, IC100, Topo II is the concentration of a compound to inhibit the enzyme activity of topoisomerase II and IC100, Gyrase is the concentration of a compound to inhibit the enzyme activity of gyrase of E. coli.

For assay [13], the system named is Enterobacter cloacae 1321E. In words: microbe, parasite or virus in culture. To be noted: 18 h, read-out: Minimal Inhibitory Concentration (MIC).
Description: as §2

Where [14] appears, read: Streptococcus pyogenes, A308, 18 h.
[15] abbreviates: Streptococcus pyogenes, A77, 18 h.

On to `O=C(O)c1cn(C2CC2)c2cc(N3CCNCC3)c(F)cc2c1=O` [Ciprofloxacin, 1-cyclopropyl-6-fluoro-7-(piperazin-1-yl)-4-oxoquinoline-3-carboxylic acid, reference compound], for which the MIC in assay [1] was 0.781 µg/mL (≈ 2.36 µM); in assay [2], 0.391 µg/mL (≈ 1.18 µM); in the assay with Klebsiella oxytoca 1082E, less than 2 ng/mL; in assay [4], 0.013 µg/mL (≈ 0.0392 µM); with Escherichia coli DC 0 (Escherichia coli, DC0, 18 h) it was 0.195 µg/mL (≈ 0.589 µM); in the assay with Escherichia coli DC 2, 0.049 µg/mL (≈ 0.148 µM). Moreover, the MIC in the assay on Escherichia coli TEM came to 7 ng/mL (≈ 0.0211 µM); in the assay on Escherichia coli 1507E, 7 ng/mL (≈ 0.0211 µM); in [5], 0.195 µg/mL (≈ 0.589 µM); in assay [6] (setting [14]), 3.12 µg/mL (≈ 9.43 µM); in assay [7] it was 0.195 µg/mL (≈ 0.589 µM); in the assay on Escherichia coli 078, 4 ng/mL (≈ 0.0121 µM). For the same compound, the MIC was found to be 0.195 µg/mL (≈ 0.589 µM) in assay [8]; 7 ng/mL (≈ 0.0211 µM) in the assay on Salmonella typhimurium; 0.781 µg/mL (≈ 2.36 µM) in assay [9] (setting [15]); 0.195 µg/mL (≈ 0.589 µM) in [10]; 0.391 µg/mL (≈ 1.18 µM) in assay [11] (18 h). For the same compound, in [3], the “IC100, Topo II” value came to 500. Besides, on gyrase of E. coli, the “IC100, Gyrase” value was found to be 0.5.

`Cc1c(N2CC3=CCCN[C@H]3C2)c(F)cn2c(=O)c(C(=O)O)cc(C3CC3)c12` [Example 1, 8-{[(R)-2,8-diazabicyclo[4.3. 0]non-5-en]-8-yl}-1-cyclopropyl-7-fluoro-9-methyl-4-oxo-4H-quinolizine-3-carboxylic acid]: the MIC in assay [1] is 0.013 µg/mL (≈ 0.0339 µM); in assay [2] it was 0.007 µg/mL (≈ 0.0183 µM); in the assay with Klebsiella oxytoca 1082E, less than 2 ng/mL; in the assay on Enterobacter cloacae P99, 4 ng/mL (≈ 0.0104 µM); in assay [4], 0.013 µg/mL (≈ 0.0339 µM); in the assay with Escherichia coli DC 0 (DC0, Escherichia coli DC 0, Muller Hinton agar, 10^7 CFU/ml, 37° C., 18 hours), 0.049 µg/mL (≈ 0.128 µM). Further, the MIC with Escherichia coli DC 2 is 0.013 µg/mL (≈ 0.0339 µM); in the assay on Escherichia coli TEM, 7 ng/mL (≈ 0.0183 µM); with Escherichia coli 1507E, 7 ng/mL (≈ 0.0183 µM); in assay [13], less than 2 ng/mL; in assay [5], 0.098 µg/mL (≈ 0.256 µM); in assay [6] (A308, Streptococcus pyogenes A 308, Muller Hinton agar, 10^7 CFU/ml, 37° C., 18 hours), 0.049 µg/mL (≈ 0.128 µM). Also, the MIC was 0.195 µg/mL (≈ 0.509 µM) in assay [7]; less than 2 ng/mL in the assay on Escherichia coli 078; 0.098 µg/mL (≈ 0.256 µM) in [8]; 4 ng/mL (≈ 0.0104 µM) with Salmonella typhimurium; 0.025 µg/mL (≈ 0.0652 µM) in assay [9] (A77, Streptococcus pyogenes A 77, Muller Hinton agar, 10^7 CFU/ml, 37° C., 18 hours); 0.007 µg/mL (≈ 0.0183 µM) in assay [10]. Also, the MIC in assay [11] (Streptococcus faecium MD 8b, Muller Hinton agar, 10^7 CFU/ml, 37° C., 18 hours) came to 0.025 µg/mL (≈ 0.0652 µM). For the same compound, the “IC100, Topo II” value in [3] is reported as 1,000. In addition, the “S.I. (Selectivity Index)” value in [12] is given as 2,000. In addition, the “IC100, Gyrase” value at gyrase of E. coli came to 0.5.

As to `Cc1c(N2CC(CN)C(OCc3cccnc3)C2)c(F)cn2c(=O)c(C(=O)O)cc(C3CC3)c12` (stereo not shown) [Example 16, 8-{[3-(3-pyridylmethyl)oxy-4-aminomethylpyrrolidine]-1-yl}-1-cyclopropyl-7-fluoro-9-methyl-4-oxo-4H-quinolizine-3-carboxylic acid], the MIC in assay [1] was 0.013 µg/mL (≈ 0.0279 µM); in assay [2] it was 0.013 µg/mL (≈ 0.0279 µM); with Klebsiella oxytoca 1082E it was less than 2 ng/mL; in the assay on Enterobacter cloacae P99, 4 ng/mL (≈ 0.00857 µM); in assay [4], 0.013 µg/mL (≈ 0.0279 µM); in the assay on Escherichia coli DC 0 (Escherichia coli, DC0, 18 h), 0.098 µg/mL (≈ 0.21 µM). The MIC in the assay on Escherichia coli DC 2 is 0.013 µg/mL (≈ 0.0279 µM); with Escherichia coli TEM it was 7 ng/mL (≈ 0.015 µM); with Escherichia coli 1507E, 13 ng/mL (≈ 0.0279 µM); in [13] it was less than 2 ng/mL; in [5], 0.195 µg/mL (≈ 0.418 µM); in assay [6] (setting [14]), 0.098 µg/mL (≈ 0.21 µM). In addition, the MIC in [7] was 0.195 µg/mL (≈ 0.418 µM); in the assay on Escherichia coli 078, less than 2 ng/mL; in assay [8], 0.195 µg/mL (≈ 0.418 µM); in the assay on Salmonella typhimurium, 4 ng/mL (≈ 0.00857 µM); in assay [9] (setting [15]), 0.049 µg/mL (≈ 0.105 µM); in assay [10], 0.013 µg/mL (≈ 0.0279 µM). In assay [11] (18 h), the MIC was 0.049 µg/mL (≈ 0.105 µM). Besides, the “IC100, Topo II” value in [3] is given as 1,000. Also, the “S.I. (Selectivity Index)” value in [12] is 2,000. Besides, the “IC100, Gyrase” value against gyrase of E. coli was found to be 0.5.

Regarding `CC1CN(c2c(F)c(N)c3c(=O)c(C(=O)O)cn(C4CC4)c3c2F)CC(C)N1` (stereo not shown) [Sparfloxacin, 1-cyclopropyl-5-amino-6,8-difluoro-7-(3,5-dimethylpiperazin-1-yl)-4-oxoquinoline-3-carboxylic acid, reference compound], the MIC in assay [1] is 0.049 µg/mL (≈ 0.125 µM); in [2] it was 0.049 µg/mL (≈ 0.125 µM); with Klebsiella oxytoca 1082E, less than 2 ng/mL; with Enterobacter cloacae P99, 7 ng/mL (≈ 0.0178 µM); in assay [4] it was 0.025 µg/mL (≈ 0.0637 µM); with Escherichia coli DC 0 (Escherichia coli, DC0, 18 h) it was 0.195 µg/mL (≈ 0.497 µM). The MIC turned out to be 0.025 µg/mL (≈ 0.0637 µM) with Escherichia coli DC 2; 13 ng/mL (≈ 0.0331 µM) in the assay with Escherichia coli TEM; 25 ng/mL (≈ 0.0637 µM) with Escherichia coli 1507E; 4 ng/mL (≈ 0.0102 µM) in assay [13]; 0.781 µg/mL (≈ 1.99 µM) in [5]; 0.391 µg/mL (≈ 0.996 µM) in [6] (setting [14]). Further, the MIC in [7] worked out at 0.781 µg/mL (≈ 1.99 µM); with Escherichia coli 078 it was 4 ng/mL (≈ 0.0102 µM); in [8], 0.781 µg/mL (≈ 1.99 µM); in the assay with Salmonella typhimurium it was 7 ng/mL (≈ 0.0178 µM); in [9] (setting [15]) it was 0.195 µg/mL (≈ 0.497 µM); in assay [10] it was 0.098 µg/mL (≈ 0.25 µM). The MIC in [11] (18 h) is 0.391 µg/mL (≈ 0.996 µM). Moreover, the “IC100, Topo II” value in assay [3] was 500. Further, the “S.I. (Selectivity Index)” value in [12] is 500. Further, the “IC100, Gyrase” value against gyrase of E. coli worked out at 1.0.
